According to patent US9084828B2, “Oligomer-protein tyrosine kinase inhibitor conjugates” (Nektar Therapeutics, priority 2009, dated 2015):

Tests used:
Format in all cases: biochemical
ABL(H396P) = ABL(H396P) (Homo sapiens, UniProt P00519, H396P); assay: Activity against various protein tyrosine kinases: ABL(H396P)
Procedure: (§1) Using techniques know those of ordinary skill in the art, compounds were tested for activity against various protein tyrosine kinases.

AKT2 = AKT2 (Homo sapiens, UniProt P31751); assay: Activity against various protein tyrosine kinases: AKT2
Chain of AKT2 (P31751 whole entry, species assumed): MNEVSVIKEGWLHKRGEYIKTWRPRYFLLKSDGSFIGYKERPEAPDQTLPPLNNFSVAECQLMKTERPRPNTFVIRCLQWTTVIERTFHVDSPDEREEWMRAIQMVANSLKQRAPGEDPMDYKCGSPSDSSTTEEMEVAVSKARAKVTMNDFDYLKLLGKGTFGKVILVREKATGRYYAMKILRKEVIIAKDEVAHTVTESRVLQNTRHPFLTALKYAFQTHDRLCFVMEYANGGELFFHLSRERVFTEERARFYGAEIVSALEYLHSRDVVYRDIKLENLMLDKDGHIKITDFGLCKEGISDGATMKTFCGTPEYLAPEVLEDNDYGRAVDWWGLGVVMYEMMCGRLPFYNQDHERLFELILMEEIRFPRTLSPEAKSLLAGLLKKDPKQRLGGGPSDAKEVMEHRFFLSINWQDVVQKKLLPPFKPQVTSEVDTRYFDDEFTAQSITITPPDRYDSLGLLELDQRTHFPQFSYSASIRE

AurC = biological target: T1, AurC (Homo sapiens, UniProt Q9UQB9); assay: Activity against various protein tyrosine kinases: AurC
T1 sequence (Q9UQB9 1-309): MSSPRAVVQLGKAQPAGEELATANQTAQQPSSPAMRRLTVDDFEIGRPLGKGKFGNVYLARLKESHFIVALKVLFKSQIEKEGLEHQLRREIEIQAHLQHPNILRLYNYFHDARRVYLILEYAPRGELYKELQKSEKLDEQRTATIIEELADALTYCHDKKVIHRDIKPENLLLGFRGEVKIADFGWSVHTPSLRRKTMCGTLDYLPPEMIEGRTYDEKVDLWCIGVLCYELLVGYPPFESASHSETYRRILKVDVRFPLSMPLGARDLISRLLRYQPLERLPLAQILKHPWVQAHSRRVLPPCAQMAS

CHK1 = biological target: T2, CHK1 (Homo sapiens, UniProt O14757); assay: Activity against various protein tyrosine kinases: CHK1
T2 sequence (O14757 1-476): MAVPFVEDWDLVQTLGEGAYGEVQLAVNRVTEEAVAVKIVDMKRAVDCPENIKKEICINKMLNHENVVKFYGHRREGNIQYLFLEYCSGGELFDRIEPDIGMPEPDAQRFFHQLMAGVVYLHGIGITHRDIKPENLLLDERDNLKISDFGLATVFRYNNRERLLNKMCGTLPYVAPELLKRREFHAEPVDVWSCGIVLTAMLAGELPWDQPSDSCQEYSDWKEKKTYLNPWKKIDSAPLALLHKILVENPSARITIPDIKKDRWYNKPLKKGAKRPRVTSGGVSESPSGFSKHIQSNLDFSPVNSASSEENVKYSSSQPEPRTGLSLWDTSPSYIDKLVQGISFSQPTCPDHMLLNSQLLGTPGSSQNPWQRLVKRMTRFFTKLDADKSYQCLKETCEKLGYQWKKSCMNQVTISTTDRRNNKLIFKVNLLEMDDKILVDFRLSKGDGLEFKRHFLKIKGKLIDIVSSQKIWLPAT

CHK2 = CHK2 (Homo sapiens, UniProt O96017); assay: Activity against various protein tyrosine kinases: CHK2
Chain of CHK2 (O96017 whole entry, species assumed): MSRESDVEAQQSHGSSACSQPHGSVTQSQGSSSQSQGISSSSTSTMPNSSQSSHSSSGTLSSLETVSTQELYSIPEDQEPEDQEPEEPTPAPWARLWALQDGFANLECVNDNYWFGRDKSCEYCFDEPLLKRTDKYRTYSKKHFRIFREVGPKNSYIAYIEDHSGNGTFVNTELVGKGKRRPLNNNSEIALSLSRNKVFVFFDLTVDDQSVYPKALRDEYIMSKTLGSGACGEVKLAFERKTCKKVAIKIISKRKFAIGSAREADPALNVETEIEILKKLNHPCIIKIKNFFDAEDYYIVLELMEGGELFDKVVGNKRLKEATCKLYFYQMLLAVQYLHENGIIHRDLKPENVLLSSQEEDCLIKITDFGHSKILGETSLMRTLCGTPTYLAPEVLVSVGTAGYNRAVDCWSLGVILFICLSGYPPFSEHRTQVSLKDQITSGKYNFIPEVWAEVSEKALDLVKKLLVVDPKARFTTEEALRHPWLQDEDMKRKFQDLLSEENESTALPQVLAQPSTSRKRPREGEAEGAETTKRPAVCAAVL

CK1d = CK1d (Homo sapiens, UniProt P48730); assay: Activity against various protein tyrosine kinases: CK1d
Chain of CK1d (P48730 whole entry): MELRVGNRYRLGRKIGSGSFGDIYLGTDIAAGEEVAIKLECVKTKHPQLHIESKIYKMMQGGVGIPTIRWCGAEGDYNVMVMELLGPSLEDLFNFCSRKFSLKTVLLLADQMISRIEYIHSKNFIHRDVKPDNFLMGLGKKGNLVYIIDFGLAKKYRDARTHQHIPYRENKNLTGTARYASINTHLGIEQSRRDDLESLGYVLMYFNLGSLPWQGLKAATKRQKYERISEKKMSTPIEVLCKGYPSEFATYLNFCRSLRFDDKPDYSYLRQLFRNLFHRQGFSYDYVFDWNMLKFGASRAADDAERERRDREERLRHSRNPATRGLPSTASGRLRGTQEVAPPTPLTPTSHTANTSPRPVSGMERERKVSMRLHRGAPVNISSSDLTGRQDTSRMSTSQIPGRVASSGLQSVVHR

CKIT = CKIT (Homo sapiens, UniProt P10721); assay: Activity against various protein tyrosine kinases: CKIT
Chain of CKIT (P10721 26-976): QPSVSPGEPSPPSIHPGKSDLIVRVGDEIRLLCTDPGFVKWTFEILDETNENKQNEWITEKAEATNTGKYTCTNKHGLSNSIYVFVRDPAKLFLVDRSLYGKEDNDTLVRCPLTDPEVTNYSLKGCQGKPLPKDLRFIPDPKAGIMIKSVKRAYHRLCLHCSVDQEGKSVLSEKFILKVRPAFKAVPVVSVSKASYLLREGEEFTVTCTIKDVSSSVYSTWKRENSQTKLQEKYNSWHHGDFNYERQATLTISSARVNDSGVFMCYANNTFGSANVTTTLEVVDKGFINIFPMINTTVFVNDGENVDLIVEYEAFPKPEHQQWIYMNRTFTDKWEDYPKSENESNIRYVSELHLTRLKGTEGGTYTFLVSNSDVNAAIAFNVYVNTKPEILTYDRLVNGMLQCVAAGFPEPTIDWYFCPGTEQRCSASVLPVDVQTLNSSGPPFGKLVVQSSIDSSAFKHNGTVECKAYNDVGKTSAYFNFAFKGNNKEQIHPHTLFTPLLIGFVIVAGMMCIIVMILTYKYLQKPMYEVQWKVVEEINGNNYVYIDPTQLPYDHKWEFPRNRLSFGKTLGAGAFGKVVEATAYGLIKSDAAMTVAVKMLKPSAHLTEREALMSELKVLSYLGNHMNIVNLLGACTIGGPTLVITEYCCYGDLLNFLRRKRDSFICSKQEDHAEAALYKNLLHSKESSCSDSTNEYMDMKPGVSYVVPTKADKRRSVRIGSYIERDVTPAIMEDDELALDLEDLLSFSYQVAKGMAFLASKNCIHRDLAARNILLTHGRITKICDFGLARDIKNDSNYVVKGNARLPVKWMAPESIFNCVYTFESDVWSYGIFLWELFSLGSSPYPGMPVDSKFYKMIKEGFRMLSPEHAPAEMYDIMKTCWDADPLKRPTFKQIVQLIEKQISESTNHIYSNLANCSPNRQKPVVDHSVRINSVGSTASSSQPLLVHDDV

FGFR1 = FGFR1 (Homo sapiens, UniProt P11362); assay: Activity against various protein tyrosine kinases: FGFR1
Procedure: as §1

LCK = LCK (Homo sapiens, UniProt P06239); assay: Activity against various protein tyrosine kinases: LCK
Chain of LCK (P06239 whole entry, species assumed): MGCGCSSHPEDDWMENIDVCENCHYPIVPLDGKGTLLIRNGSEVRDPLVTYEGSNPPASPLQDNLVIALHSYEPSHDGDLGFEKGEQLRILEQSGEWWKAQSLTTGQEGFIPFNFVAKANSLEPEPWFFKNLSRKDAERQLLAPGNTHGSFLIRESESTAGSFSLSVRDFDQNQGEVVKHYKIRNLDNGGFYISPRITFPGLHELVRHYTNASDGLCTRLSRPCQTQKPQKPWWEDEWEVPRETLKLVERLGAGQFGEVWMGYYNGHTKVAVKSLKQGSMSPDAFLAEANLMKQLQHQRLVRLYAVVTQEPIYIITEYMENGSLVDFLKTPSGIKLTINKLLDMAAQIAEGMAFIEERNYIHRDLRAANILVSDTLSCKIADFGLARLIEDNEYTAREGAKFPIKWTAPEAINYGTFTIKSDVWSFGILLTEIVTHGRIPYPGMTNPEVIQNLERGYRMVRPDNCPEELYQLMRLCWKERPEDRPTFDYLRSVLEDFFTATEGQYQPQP

LYN = LYN (Homo sapiens, UniProt P07948); assay: Activity against various protein tyrosine kinases: LYN
Chain of LYN (P07948 whole entry, species assumed): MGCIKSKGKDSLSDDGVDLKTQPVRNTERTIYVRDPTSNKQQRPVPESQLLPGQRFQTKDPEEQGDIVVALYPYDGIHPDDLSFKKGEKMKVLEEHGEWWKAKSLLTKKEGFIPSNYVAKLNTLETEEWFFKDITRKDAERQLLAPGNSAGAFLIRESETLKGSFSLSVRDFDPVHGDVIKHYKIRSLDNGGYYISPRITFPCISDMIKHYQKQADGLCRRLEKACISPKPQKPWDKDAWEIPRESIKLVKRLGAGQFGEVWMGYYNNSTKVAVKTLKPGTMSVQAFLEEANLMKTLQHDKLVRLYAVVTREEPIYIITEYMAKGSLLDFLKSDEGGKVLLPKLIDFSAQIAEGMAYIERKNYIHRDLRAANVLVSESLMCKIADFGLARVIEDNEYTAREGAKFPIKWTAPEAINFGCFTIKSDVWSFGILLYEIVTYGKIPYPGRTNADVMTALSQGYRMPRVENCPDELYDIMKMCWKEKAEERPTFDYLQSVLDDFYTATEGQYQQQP

MET = MET (Homo sapiens, UniProt P08581); assay: Activity against various protein tyrosine kinases: MET
Chain of MET (P08581 25-1390): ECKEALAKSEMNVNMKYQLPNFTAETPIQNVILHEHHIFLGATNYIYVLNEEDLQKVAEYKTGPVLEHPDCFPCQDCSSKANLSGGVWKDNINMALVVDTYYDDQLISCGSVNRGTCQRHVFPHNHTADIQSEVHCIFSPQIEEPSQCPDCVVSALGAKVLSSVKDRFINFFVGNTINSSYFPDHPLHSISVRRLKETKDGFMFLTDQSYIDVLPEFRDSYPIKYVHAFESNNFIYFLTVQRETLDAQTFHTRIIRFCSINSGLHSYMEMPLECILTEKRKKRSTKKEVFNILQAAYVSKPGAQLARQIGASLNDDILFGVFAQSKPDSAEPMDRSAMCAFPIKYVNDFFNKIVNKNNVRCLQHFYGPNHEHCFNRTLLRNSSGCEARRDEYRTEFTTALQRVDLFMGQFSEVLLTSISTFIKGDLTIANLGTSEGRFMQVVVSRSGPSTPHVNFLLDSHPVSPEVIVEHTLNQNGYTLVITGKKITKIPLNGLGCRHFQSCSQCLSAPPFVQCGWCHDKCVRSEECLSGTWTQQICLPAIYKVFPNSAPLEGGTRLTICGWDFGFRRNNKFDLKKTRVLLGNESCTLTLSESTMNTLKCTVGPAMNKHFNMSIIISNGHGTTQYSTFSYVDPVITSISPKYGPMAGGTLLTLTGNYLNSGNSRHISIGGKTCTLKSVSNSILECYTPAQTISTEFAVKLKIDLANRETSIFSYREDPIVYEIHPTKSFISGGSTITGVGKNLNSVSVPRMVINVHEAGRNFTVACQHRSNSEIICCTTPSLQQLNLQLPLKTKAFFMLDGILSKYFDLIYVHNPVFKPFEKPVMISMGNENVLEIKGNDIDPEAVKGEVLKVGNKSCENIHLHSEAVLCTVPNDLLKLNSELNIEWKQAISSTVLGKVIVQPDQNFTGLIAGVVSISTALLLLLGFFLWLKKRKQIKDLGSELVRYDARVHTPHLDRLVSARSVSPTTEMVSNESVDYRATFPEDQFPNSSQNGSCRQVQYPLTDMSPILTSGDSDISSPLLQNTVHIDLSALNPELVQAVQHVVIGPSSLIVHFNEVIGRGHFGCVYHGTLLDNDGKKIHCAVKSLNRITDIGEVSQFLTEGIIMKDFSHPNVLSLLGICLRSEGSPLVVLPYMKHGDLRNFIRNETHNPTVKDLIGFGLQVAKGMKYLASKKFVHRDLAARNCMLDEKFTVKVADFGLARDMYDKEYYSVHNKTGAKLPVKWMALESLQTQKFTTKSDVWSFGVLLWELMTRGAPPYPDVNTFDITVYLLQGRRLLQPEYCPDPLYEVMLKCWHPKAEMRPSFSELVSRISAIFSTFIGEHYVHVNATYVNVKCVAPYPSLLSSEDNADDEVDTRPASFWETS

PKD2 = biological target: T3, PKD2 (Homo sapiens, UniProt Q9BZL6); assay: Activity against various protein tyrosine kinases: PKD2
T3 sequence (Q9BZL6 1-878): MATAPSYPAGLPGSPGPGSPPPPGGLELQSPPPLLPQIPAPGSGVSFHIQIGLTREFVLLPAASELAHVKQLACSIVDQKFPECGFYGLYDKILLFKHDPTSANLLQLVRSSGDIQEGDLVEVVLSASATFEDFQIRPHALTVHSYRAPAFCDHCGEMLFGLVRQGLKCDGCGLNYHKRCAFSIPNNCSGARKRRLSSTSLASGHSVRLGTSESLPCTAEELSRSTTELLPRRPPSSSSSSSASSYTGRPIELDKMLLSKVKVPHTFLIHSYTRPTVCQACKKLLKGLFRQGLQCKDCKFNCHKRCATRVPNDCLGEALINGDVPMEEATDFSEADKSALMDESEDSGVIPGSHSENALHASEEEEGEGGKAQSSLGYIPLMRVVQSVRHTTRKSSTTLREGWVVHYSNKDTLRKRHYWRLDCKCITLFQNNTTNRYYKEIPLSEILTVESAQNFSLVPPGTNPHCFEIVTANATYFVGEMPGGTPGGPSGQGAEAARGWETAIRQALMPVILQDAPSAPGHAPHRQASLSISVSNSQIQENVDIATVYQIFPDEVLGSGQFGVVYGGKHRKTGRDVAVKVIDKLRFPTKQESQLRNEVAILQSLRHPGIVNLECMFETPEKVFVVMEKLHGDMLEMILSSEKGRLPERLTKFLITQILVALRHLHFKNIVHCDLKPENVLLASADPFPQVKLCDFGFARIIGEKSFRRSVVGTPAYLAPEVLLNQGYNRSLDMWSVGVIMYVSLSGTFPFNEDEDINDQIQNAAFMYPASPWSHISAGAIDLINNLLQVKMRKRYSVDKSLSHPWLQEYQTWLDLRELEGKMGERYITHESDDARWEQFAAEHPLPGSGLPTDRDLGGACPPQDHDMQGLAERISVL

Structure (SMILES) | % Inhibition at 10 nM (ABL(H396P)) | % Inhibition at 1 μM (ABL(H396P)) | % Inhibition at 10 nM (AKT2) | % Inhibition at 1 μM (AKT2) | % Inhibition at 10 nM (AurC) | % Inhibition at 1 μM (AurC) | % Inhibition at 10 nM (CHK1) | % Inhibition at 1 μM (CHK1) | % Inhibition at 10 nM (CHK2) | % Inhibition at 1 μM (CHK2) | % Inhibition at 10 nM (CK1d) | % Inhibition at 1 μM (CK1d) | % Inhibition at 10 nM (CKIT) | % Inhibition at 1 μM (CKIT) | % Inhibition at 10 nM (FGFR1) | % Inhibition at 1 μM (FGFR1) | % Inhibition at 10 nM (LCK) | % Inhibition at 1 μM (LCK) | % Inhibition at 10 nM (LYN) | % Inhibition at 1 μM (LYN) | further results
COCCOCCOCCNC(=O)OCCN1CCN(c2cc(Nc3ncc(C(=O)Nc4c(C)cccc4Cl)s3)nc(C)n2)CC1 [mPEG3-NHCOO-Dasatinib] | 99% | 99% | 9% | 7% | −1% | 0% | −2% | 0% | 1% | 11% | 1% | 3% | 34% | 100% | 11% | −3% | 97% | 98% | 99% | 99% | % Inhibition at 10 nM (MET): 3%; % Inhibition at 1 μM (MET): 0%; % Inhibition at 10 nM (PKD2): 12%; % Inhibition at 1 μM (PKD2): −5%
COCCOCCOCCOCCOCCOCCOCCNC(=O)OCCN1CCN(c2cc(Nc3ncc(C(=O)Nc4c(C)cccc4Cl)s3)nc(C)n2)CC1 [mPEG7-NHCOO-Dasatinib] | 99% | 99% | 3% | 3% | 0% | 2% | 10% | 8% | 2% | 1% | 0% | 9% | 34% | 100% | 2% | 3% | 98% | 98% | 98% | 98% | % Inhibition at 10 nM (MET): 1%; % Inhibition at 1 μM (MET): 1%; % Inhibition at 10 nM (PKD2): 3%; % Inhibition at 1 μM (PKD2): 4%
